Data: publication PMC2759517 (PLoS ONE, 2009)

System: PA-HA from several FluA strains
Format: binding, influenza A virus

CC[C@H](C)[C@H](NC(=O)[C@H](C)NC(=O)[C@H](CC(N)=O)NC(=O)[C@H](CCC(N)=O)NC(=O)[C@H](C)NC(=O)[C@@H]1CCCN1C(=O)[C@@H](NC(=O)[C@H](CCCCN)NC(=O)[C@H](CC(C)C)NC(=O)[C@H](Cc1ccccc1)NC(=O)[C@H](CC(C)C)NC(=O)[C@H](CC(C)C)NC(=O)[C@@H](NC(=O)[C@@H]1CCCN1C(=O)[C@H](CC(N)=O)NC(=O)[C@@H](NC(=O)[C@H](CC(=O)O)NC(=O)[C@@H](N)CCSC)C(C)C)[C@@H](C)O)C(C)C)C(=O)N[C@@H](CO)C(=O)N[C@H](C(=O)N[C@H](C(=O)N[C@@H](Cc1ccccc1)C(=O)N1CCC[C@H]1C(=O)N[C@@H](Cc1ccc(O)cc1)C(=O)N[C@H](C(N)=O)[C@@H](C)O)[C@@H](C)O)[C@@H](C)O [PB1_1–25A]
Binding of FluA PA-HA to immobilized peptide: bound
